According to ChEMBL document CHEMBL2010795, “Anti-inflammatory and anti-arthritic effects of new synthetic 3-(4-hydroxyphenyl)-4-(4-thiomethoxyphenyl)-1H-pyrrole-2,5-dione” (2012):
One block for each molecule: values may come before it. The source made the active and inactive calls. The calls are words filed in the database; no cut-off is given here.

What was measured:
Rattus norvegicus [1] = experiment: Antiinflammatory activity in rat assessed as inhibition of carrageenan-induced hind paw edema at 50 mg/kg, po administered 1 hr before carrageenan challenge measured up to 5 hrs by plethysmometer; type: functional, organism-based; parameters: dose 50 mg/kg
Rattus norvegicus [2] = experiment: Antiarthritic activity in Freund's complete adjuvant-induced Sprague-Dawley rat arthritis model at 50 mg/kg, po administered daily on day 9 to day 19 post challenge; type: functional, organism-based; parameters: dose 50 mg/kg
RAW264.7 [3] = experiment: Inhibition of LPS-induced PGE2 production in mouse RAW264.7 cells treated 1 hr before LPS challenge measured after 24 hrs by EIA; type: functional, cell-based
[4] = target: T1, Prostaglandin G/H synthase 2 (Homo sapiens) (UniProt P35354); experiment: Inhibition of human recombinant COX2 assessed as PGF2alpha production preincubated for 10 mins before substrate addition by EIA
T1 sequence (whole entry): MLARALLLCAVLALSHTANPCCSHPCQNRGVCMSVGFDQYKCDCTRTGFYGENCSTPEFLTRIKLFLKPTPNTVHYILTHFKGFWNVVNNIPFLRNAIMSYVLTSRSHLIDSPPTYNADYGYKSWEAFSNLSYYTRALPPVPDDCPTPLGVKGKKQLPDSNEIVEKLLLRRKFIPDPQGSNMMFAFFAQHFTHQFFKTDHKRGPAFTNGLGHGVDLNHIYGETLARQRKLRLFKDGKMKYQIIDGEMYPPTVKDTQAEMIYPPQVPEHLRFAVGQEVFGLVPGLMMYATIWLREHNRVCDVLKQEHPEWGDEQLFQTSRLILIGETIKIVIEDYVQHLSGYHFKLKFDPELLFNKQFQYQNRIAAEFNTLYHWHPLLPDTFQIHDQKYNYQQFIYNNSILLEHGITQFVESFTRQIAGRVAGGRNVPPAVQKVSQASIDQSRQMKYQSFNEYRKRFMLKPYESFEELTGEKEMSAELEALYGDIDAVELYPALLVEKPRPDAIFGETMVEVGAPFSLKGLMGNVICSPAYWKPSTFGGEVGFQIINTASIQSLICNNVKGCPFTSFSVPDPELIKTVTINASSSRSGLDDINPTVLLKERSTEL

RAW264.7 [5] = experiment: Effect on COX-2 protein expression in LPS-stimulated mouse RAW264.7 cells at 10 to 40 uM preincubated for 1 hr prior LPS challenge measured after 24 hrs by Western blot analysis; type: functional, cell-based
RAW264.7 [6] = experiment: Effect on COX-2 mRNA expression in LPS-stimulated mouse RAW264.7 cells at 10 to 40 uM preincubated for 1 hr prior LPS challenge measured after 4 hrs by RT-PCR analysis; type: functional, cell-based
[7] = target: T2, Prostaglandin G/H synthase 1 (Ovis aries) (UniProt P05979); experiment: Inhibition of ovine recombinant COX1 assessed as PGF2alpha production at 0.1 to 40 uM preincubated for 10 mins before substrate addition by EIA
T2 sequence (whole entry): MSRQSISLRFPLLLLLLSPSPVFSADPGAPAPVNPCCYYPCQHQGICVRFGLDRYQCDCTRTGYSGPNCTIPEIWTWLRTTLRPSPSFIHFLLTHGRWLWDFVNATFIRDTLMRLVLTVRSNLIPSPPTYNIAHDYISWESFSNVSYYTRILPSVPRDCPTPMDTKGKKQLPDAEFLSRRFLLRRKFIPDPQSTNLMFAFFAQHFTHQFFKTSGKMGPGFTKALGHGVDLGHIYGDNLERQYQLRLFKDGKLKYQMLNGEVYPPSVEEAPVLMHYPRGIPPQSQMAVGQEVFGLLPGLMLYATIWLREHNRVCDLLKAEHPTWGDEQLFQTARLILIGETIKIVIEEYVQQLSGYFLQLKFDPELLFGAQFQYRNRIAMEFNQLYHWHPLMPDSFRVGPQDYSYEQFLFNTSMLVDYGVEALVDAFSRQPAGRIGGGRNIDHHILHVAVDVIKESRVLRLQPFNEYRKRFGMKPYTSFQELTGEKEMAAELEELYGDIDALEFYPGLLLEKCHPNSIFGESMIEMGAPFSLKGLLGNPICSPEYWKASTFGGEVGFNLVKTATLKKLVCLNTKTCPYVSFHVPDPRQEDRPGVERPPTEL

RAW264.7 [8] = experiment: Effect on COX-1 mRNA expression in LPS-stimulated mouse RAW264.7 cells; type: functional, cell-based
RAW264.7 [9] = experiment: Inhibition of LPS-induced IL-1 beta production in mouse RAW264.7 cells at 10 to 40 uM treated 1 hr before LPS challenge measured after 24 hrs by EIA; type: functional, cell-based
RAW264.7 [10] = experiment: Inhibition of LPS-induced IL-6 production in mouse RAW264.7 cells at 10 to 40 uM treated 1 hr before LPS challenge measured after 24 hrs by EIA; type: functional, cell-based
RAW264.7 [11] = experiment: Inhibition of LPS-induced IL-1 beta mRNA expression in mouse RAW264.7 cells at 10 to 40 uM treated 1 hr before LPS challenge measured after 24 hrs by RT-PCR analysis; type: functional, cell-based
RAW264.7 [12] = experiment: Inhibition of LPS-induced IL-6 mRNA expression in mouse RAW264.7 cells at 10 to 40 uM treated 1 hr before LPS challenge measured after 24 hrs by RT-PCR analysis; type: functional, cell-based
RAW264.7 [13] = experiment: Inhibition of LPS-induced nitric oxide production in mouse RAW264.7 cells at 10 to 40 uM treated 1 hr before LPS challenge measured after 24 hrs by Griess method; type: functional, cell-based
RAW264.7 [14] = experiment: Inhibition of iNOS protein expression in mouse RAW264.7 cells assessed as reduction in NO production by Western blot analysis; type: functional, cell-based
RAW264.7 [15] = experiment: Inhibition of LPS-induced iNOS mRNA expression in mouse RAW264.7 cells assessed as reduction in NO production at 10 to 40 uM treated 1 hr before LPS challenge measured after 4 hrs by RT-PCR analysis; type: functional, cell-based
Rattus norvegicus [16] = experiment: Antiinflammatory activity in rat assessed as inhibition of carrageenan-induced hind paw edema at 25 mg/kg, po administered 1 hr before carrageenan challenge measured up to 5 hrs by plethysmometer; type: functional, organism-based; parameters: dose 25 mg/kg
Rattus norvegicus [17] = experiment: Antiinflammatory activity in rat assessed as inhibition of carrageenan-induced PGE2 production in hind paw at 25 mg/kg, po administered 1 hr before carrageenan challenge measured up to 5 hrs by EIA; type: functional, organism-based; parameters: dose 25 mg/kg
Rattus norvegicus [18] = experiment: Antiinflammatory activity in rat assessed as inhibition of carrageenan-induced myeloperoxidase activity in hind paw at 25 mg/kg, po administered 1 hr before carrageenan challenge measured up to 5 hrs by EIA; type: functional, organism-based; parameters: dose 25 mg/kg
Rattus norvegicus [19] = experiment: Antiarthritic activity in Freund's complete adjuvant-induced Sprague-Dawley rat arthritis model at 25 mg/kg, po administered daily on day 9 to day 19 post challenge; type: functional, organism-based; parameters: dose 25 mg/kg
Rattus norvegicus [20] = experiment: Antiarthritic activity in Freund's complete adjuvant-induced Sprague-Dawley rat arthritis model assessed as inhibition of ankle swelling at 25 to 50 mg/kg, po administered daily on day 9 to day 19 post challenge; type: functional, organism-based
Rattus norvegicus [21] = experiment: Antiarthritic activity in Freund's complete adjuvant-induced Sprague-Dawley rat arthritis model assessed as reduction in paw volume at 50 mg/kg, po administered daily on day 9 to day 19 post challenge; type: functional; parameters: scale not given: the % may be the effect or the level left
Rattus norvegicus [22] = experiment: Antiarthritic activity in Freund's complete adjuvant-induced Sprague-Dawley rat arthritis model assessed as inhibition of edema at 25 to 50 mg/kg, po administered daily on day 9 to day 19 post challenge; type: functional, organism-based
Rattus norvegicus [23] = experiment: Antiarthritic activity in Freund's complete adjuvant-induced Sprague-Dawley rat arthritis model assessed as inhibition of erythema at 25 to 50 mg/kg, po administered daily on day 9 to day 19 post challenge; type: functional, organism-based
Rattus norvegicus [24] = experiment: Antiarthritic activity in Freund's complete adjuvant-induced Sprague-Dawley rat arthritis model assessed as inhibition of joint dysfunction at 25 to 50 mg/kg, po administered daily on day 9 to day 19 post challenge; type: functional, organism-based
Rattus norvegicus [25] = experiment: Antiarthritic activity in Freund's complete adjuvant-induced Sprague-Dawley rat arthritis model assessed as reduction in plasma PGE2 levels at 50 mg/kg, po administered daily on day 9 to day 19 post challenge measured after 19 days by EIA; type: functional; parameters: scale not given: the % may be the effect or the level left
Rattus norvegicus [26] = experiment: Antiarthritic activity in Freund's complete adjuvant-induced Sprague-Dawley rat arthritis model assessed as reduction in IL-1beta mRNA expression at 50 mg/kg, po administered daily on day 9 to day 19 post challenge measured on day 20 by RT-PCR analysis; type: functional, organism-based; parameters: dose 50 mg/kg
Rattus norvegicus [27] = experiment: Antiarthritic activity in Freund's complete adjuvant-induced Sprague-Dawley rat arthritis model assessed as reduction in IL-6 mRNA expression at 50 mg/kg, po administered daily on day 9 to day 19 post challenge measured on day 20 by RT-PCR analysis; type: functional, organism-based; parameters: dose 50 mg/kg
RAW264.7 [28] = experiment: Effect on COX-1 protein expression in LPS-stimulated mouse RAW264.7 cells; type: functional, cell-based

Structure (SMILES): CC(C)Cc1ccc(C(C)C(=O)O)cc1 (stereo not given)
inhibition (Rattus norvegicus [1]): Active
Activity (Rattus norvegicus [2]): Active

inhibition [4]: Dose-dependent effect
inhibition [7]: inactive
Structure (SMILES): CSc1ccc(C2=C(c3ccc(O)cc3)C(=O)NC2=O)cc1
inhibition (RAW264.7 [3]): Dose-dependent effect
inhibition (RAW264.7 [5]): inactive
inhibition (RAW264.7 [6]): inactive
inhibition (RAW264.7 [8]): inactive
inhibition (RAW264.7 [9]): Active
inhibition (RAW264.7 [10]): Active
inhibition (RAW264.7 [11]): Active
inhibition (RAW264.7 [12]): Active
inhibition (RAW264.7 [13]): Active
inhibition (RAW264.7 [14]): Active
inhibition (RAW264.7 [15]): Active
inhibition (Rattus norvegicus [16]): Active
inhibition (Rattus norvegicus [1]): Active
inhibition (Rattus norvegicus [17]): Active
inhibition (Rattus norvegicus [18]): Active
Activity (Rattus norvegicus [19]): Active
Activity (Rattus norvegicus [2]): Active
inhibition (Rattus norvegicus [20]): Active
Activity (Rattus norvegicus [21]): 53%
inhibition (Rattus norvegicus [22]): Active
inhibition (Rattus norvegicus [23]): Active
inhibition (Rattus norvegicus [24]): Active
Activity (Rattus norvegicus [25]): 42%
Activity (Rattus norvegicus [26]): Active
Activity (Rattus norvegicus [27]): Active
inhibition (RAW264.7 [28]): inactive
